Where a name gives a salt, the structure may show the parent alone.
Tests used:
[1] = Solubility in water system at different temperatures, HPLC; format: physicochemical; settings: hydrochloride; for Solubility comparison of the four crystal forms (summary): summary over water, methanol and ethanol systems; for Solubility ranking among the four crystal forms: water system, different temperatures, FIG. 13
Method: Demethyleneberberine hydrochloride crystals A, B, C and D are taken in an appropriate amount and the solubility of demethyleneberberine hydrochloride crystals A, B, C and D at different temperatures in a water system is studied respectively. 20 μl of sample is taken at each temperature node and detected by HPLC.

[2] = Determination of blood concentration in rats after ig administration; format: in vivo; settings: ig 200 mg/kg, plasma; for AUC / Cmax: male SD rats, hydrochloride; for AUC: calculated from the experimental results
Method: Male SD rats are adaptively bred for 3 days, and rats having (220±20) g body weight are selected and divided into 5 groups, namely, blank group, demethyleneberberine hydrochloride crystal form A group, demethyleneberberine hydrochloride crystal form B group, demethyleneberberine hydrochloride crystal form C group and demethyleneberberine hydrochloride crystal form D group. Food supply is stopped for 12 h for gastric emptying before the experiment. For the rats in the experimental groups, ig (intragastric) administration dosage is 200 mg/kg. 0.2 ml of blood is taken from the orbits of the rats at 5 min., 15 min., 30 min., 1 h, 2 h, 6 h and 12 h respectively after ig administration, the whole blood is centrifuged, and 100 μl of plasma is taken and frozen at −20° C. for use later. 100 μl of plasma sample is taken, 200 μl of methanol is added into the plasma sample, the mixture is vortexed for 5 min., and then centrifuged at 10,000 r/min. for 15 min. in a centrifuge; the supernatant is taken and tested by HPLC. […] Through calculation on the basis of the experimental results, it is determined: DAUC=3.675 μg×ml^−1×h>AAUC=1.247 μg×ml^−1×h>BAUC=1.150 μg×ml^−1×h>CAUC=1.077 μg×ml^−1×h.

[3] = Stability in high-temperature experiment (60±2° C.); format: physicochemical; settings: for X-Ray Powder Diffraction / Content (%) / Content of Relevant Substance (%) / Stability in the high-temperature environment: 60±2° C.; for Stability in the high-temperature environment / Stability under stability test conditions (summary): hydrochloride; for Stability under stability test conditions (summary): summary over high temperature, high humidity and strong light irradiation
Method: Demethyleneberberine hydrochloride crystals A, B, C and D are taken in an appropriate amount and placed in plates numbered as A1, B1, C1 and D1 respectively, and then the plates are placed in a high-temperature environment at 60±2° C. respectively for stability test.

[4] = Solubility in ethanol system at different temperatures, HPLC; format: physicochemical; settings: FIG. 15, hydrochloride
Method: Demethyleneberberine hydrochloride crystals A, B, C and D are taken in an appropriate amount and the solubility of demethyleneberberine hydrochloride crystals A, B, C and D at different temperatures in an ethanol system is studied respectively. 20 μl of sample is taken at each temperature node and detected by HPLC.

[5] = Stability in high-humidity experiment (RH90±5%); format: physicochemical
Source text: Demethyleneberberine hydrochloride crystals A, B, C and D are taken in an appropriate amount and placed in plates numbered as A2, B2, C2 and D2 respectively, and then the plates are placed in a high-humidity environment at RH90±5% respectively for stability test.

[6] = Stability in strong light irradiation experiment (4,500 lx±500 lx); format: physicochemical; settings: for Stability in the strong light irradiation environment: hydrochloride
Source text: Demethyleneberberine hydrochloride crystals A, B, C and D are taken in an appropriate amount and placed in plates numbered as A3, B3, C3 and D3 respectively, and then the plates are placed in a strong light irradiation environment at 4,500 lx±500 lx respectively for stability test.

[7] = Solubility in methanol system at different temperatures, HPLC; format: physicochemical; settings: FIG. 14, hydrochloride
Method: Demethyleneberberine hydrochloride crystals A, B, C and D are taken in an appropriate amount and the solubility of demethyleneberberine hydrochloride crystals A, B, C and D at different temperatures in a methanol system is studied respectively. 20 μl of sample is taken at each temperature node and detected by HPLC.

[8] = day 0, listed as A1, hydrochloride
[9] = day 5, listed as A1, hydrochloride
[10] = day 10, listed as A1, hydrochloride
[11] = day 0, listed as A2, hydrochloride
[12] = day 5, listed as A2, hydrochloride
[13] = day 10, listed as A2, hydrochloride
[14] = day 0, listed as A3, hydrochloride
[15] = day 5, listed as A3, hydrochloride
[16] = day 10, listed as A3, hydrochloride
[17] = day 0, listed as B1, hydrochloride
[18] = day 5, listed as B1, hydrochloride
[19] = day 10, listed as B1, hydrochloride
[20] = day 0, listed as B2, hydrochloride
[21] = day 5, listed as B2, hydrochloride
[22] = day 10, listed as B2, hydrochloride
[23] = day 0, listed as B3, hydrochloride
[24] = day 5, listed as B3, hydrochloride
[25] = day 10, listed as B3, hydrochloride

In the case of COc1ccc2cc3[n+](cc2c1OC)CCc1cc(O)c(O)cc1-3 [crystal form A, demethyleneberberine hydrochloride], the “Solubility comparison of the four crystal forms (summary)” value [1] is reported as “>solubility of crystal form D of demethyleneberberine hydrochloride”, the “Solubility ranking among the four crystal forms” value [1] is reported as “>solubility of crystal form D of demethyleneberberine hydrochloride” and the AUC [2] is reported as 1.247 µg·h/mL. For the same compound, the Cmax [2] was 0.292 µg/mL, the “X-Ray Powder Diffraction” value ([3]; day 0) was “Unchanged” and the “Content (%)” value [3, 8] was 99.62%. The “Content of Relevant Substance (%)” value [3, 8] was 0.38%, the “X-Ray Powder Diffraction” value ([3]; day 5) was “Unchanged” and the “Content (%)” value [3, 9] was 99.63%. The “Content of Relevant Substance (%)” value [3, 9] was 0.37%, the “Content (%)” value [3, 10] was 99.61% and the “Content of Relevant Substance (%)” value [3, 10] was 0.39%. The “X-Ray Powder Diffraction” value [3, 10] was “Unchanged”, the “Stability in the high-temperature environment” value [3] was “relatively stable” and the “Stability under stability test conditions (summary)” value [3] was “stable”. The “Solubility ranking among the four crystal forms” value [4] was “>solubility of crystal form D of demethyleneberberine hydrochloride”, the “Stability in the high-humidity environment” value [5] was “relatively stable” and the “X-Ray Powder Diffraction” value ([5]; day 0) was “Unchanged”. The “Content (%)” value [5, 11] was 99.62%, the “Content of Relevant Substance (%)” value [5, 11] was 0.38% and the “X-Ray Powder Diffraction” value ([5]; day 5) was “Unchanged”. The “Content (%)” value [5, 12] was 99.58%, the “Content of Relevant Substance (%)” value [5, 12] was 0.42% and the “X-Ray Powder Diffraction” value ([5]; day 10) was “Unchanged”. For the same compound, the “Content (%)” value [5, 13] was 99.60%, the “Content of Relevant Substance (%)” value [5, 13] was 0.40% and the “X-Ray Powder Diffraction” value ([6]; day 0) was “Unchanged”. For the same compound, the “Content (%)” value [6, 14] was 99.62%, the “Content of Relevant Substance (%)” value [6, 14] was 0.38% and the “X-Ray Powder Diffraction” value ([6]; day 5) was “Unchanged”. The “Content (%)” value [6, 15] was 99.61%, the “Content of Relevant Substance (%)” value [6, 15] was 0.39% and the “Content (%)” value [6, 16] was 99.60%. For the same compound, the “Content of Relevant Substance (%)” value [6, 16] was 0.40%, the “X-Ray Powder Diffraction” value [6, 16] was “Unchanged” and the “Stability in the strong light irradiation environment” value [6] was “relatively stable”. For the same compound, the “Solubility ranking among the four crystal forms” value [7] was “>solubility of crystal form D of demethyleneberberine hydrochloride”.
For COc1ccc2cc3[n+](cc2c1OC)CCc1cc(O)c(O)cc1-3 [crystal form B, demethyleneberberine hydrochloride], the “Solubility comparison of the four crystal forms (summary)” value [1] was “>solubility of crystal form A of demethyleneberberine hydrochloride”, the “Solubility ranking among the four crystal forms” value [1] was “>solubility of crystal form A of demethyleneberberine hydrochloride” and the AUC [2] was 1.150 µg·h/mL. The Cmax [2] was 0.642 µg/mL, the tmax ([2]; male, SD, rat, po, 200 mg/kg, read-out: tmax) was 1 h and the “X-Ray Powder Diffraction” value ([3]; day 0) was “Unchanged”. The “Content (%)” value [3, 17] was 99.82%, the “Content of Relevant Substance (%)” value [3, 17] was 0.18% and the “X-Ray Powder Diffraction” value ([3]; day 5) was “Unchanged”. The “Content (%)” value [3, 18] was 99.62%, the “Content of Relevant Substance (%)” value [3, 18] was 0.38% and the “Content (%)” value [3, 19] was 99.67%. For the same compound, the “Content of Relevant Substance (%)” value [3, 19] was 0.33%, the “X-Ray Powder Diffraction” value [3, 19] was “Unchanged” and the “Stability in the high-temperature environment” value [3] was “relatively stable”. The “Stability under stability test conditions (summary)” value [3] was “stable”, the “Solubility ranking among the four crystal forms” value [4] was “>solubility of crystal form A of demethyleneberberine hydrochloride” and the “Stability in the high-humidity environment” value [5] was “relatively stable”. For the same compound, the “X-Ray Powder Diffraction” value ([5]; day 0) was “Unchanged”, the “Content (%)” value [5, 20] was 99.58% and the “Content of Relevant Substance (%)” value [5, 20] was 0.42%. For the same compound, the “X-Ray Powder Diffraction” value ([5]; day 5) was “Unchanged”, the “Content (%)” value [5, 21] was 99.60% and the “Content of Relevant Substance (%)” value [5, 21] was 0.40%. For the same compound, the “X-Ray Powder Diffraction” value ([5]; day 10) was “Unchanged”, the “Content (%)” value [5, 22] was 99.56% and the “Content of Relevant Substance (%)” value [5, 22] was 0.44%. For the same compound, the “X-Ray Powder Diffraction” value ([6]; day 0) was “Unchanged”, the “Content (%)” value [6, 23] was 99.58% and the “Content of Relevant Substance (%)” value [6, 23] was 0.42%. For the same compound, the “X-Ray Powder Diffraction” value ([6]; day 5) was “Unchanged”, the “Content (%)” value [6, 24] was 99.77% and the “Content of Relevant Substance (%)” value [6, 24] was 0.23%. For the same compound, the “Content (%)” value [6, 25] was 99.67%, the “Content of Relevant Substance (%)” value [6, 25] was 0.33% and the “X-Ray Powder Diffraction” value [6, 25] was “Unchanged”. For the same compound, the “Stability in the strong light irradiation environment” value [6] was “relatively stable” and the “Solubility ranking among the four crystal forms” value [7] was “>solubility of crystal form A of demethyleneberberine hydrochloride”.

— patent US11242340B2, “Crystal forms of demethyleneberberine hydrochloride and preparation method therefor” (priority 2018, dated 2022)
